Reference: patent US11007199B2, “Compositions and methods for ameliorating pain and reducing fever” (The Board of Supervisors of Louisiana State University and …, priority 2017, dated 2021)
“Also recorded” adds a separate entry of the source.

Assays:
CD1 male mice = assay: Tail-flick assay; conditions: in vivo analgesia model, FIG. 8; per os at 40 mg/kg
Protocol: Tail-flick assay. Analgesic effect of drugs was determined by using the reaction time (latency) of mice to thermal stimulation of the tail tip. All animals (CD1 male mice) were fasted overnight (with free access to water) and their baseline tail flick latency (seconds) was recorded twice for each mouse using an IITC Tail Flick Analgesia Meter.
After measurement of baseline latency, drugs were administered per os at 40 mg/kg to animals belonging to the treatment groups. At 30 minutes post injection, tail flick latency was recorded again, twice for each mouse, to determine total change in latency. Mice were subjected to cold shock by dipping their tails into ice-cold water at 4° C.
Percentage of maximum analgesia for each mouse were calculated with the formula, Percentage Analgesia=100*{[(Latency to tail flick after drug injection)−(Latency to tail flick at baseline)]/[(12 sec cutoff time)−(Baseline latency)]}. Data expressed as mean±SEM, n=10.

rats = assay: Von Frey analgesia assay; conditions: in vivo analgesia model, FIG. 8; IP injection
Protocol: Von Frey analgesia assay. Twenty rats are brought into the eVF room and allowed to acclimate to the room for 30 minutes. At the 30 minute mark, saline injections begin. 30 minutes after the saline injection, the eVF readings of the rats are taken by applying the filament of the eVF machine to the center of the bottom of the hind paws (left and right) of each rat. The filament uses a magnet to remain attached to the probe, which measures the pressure in grams applied to the filament. The pressure readout is then recorded from the transducer.
After saline injections, a drug is injected (different compound each day). In the same manner as saline injections, at the 30 minute mark after each drug injection, eVF readings of each rat are taken.
Drug Injection/Concentration: All drugs and saline were administered by intraperitoneal (IP) injection. Each injection was 1 mL/kg of body weight (i.e., 463 g rat received 0.463 mL of injection). Four doses on a logarithmic scale for ApAP w ere used. 10 mg/kg, 32 mg/kg, 100 mg/kg, and 320 mg/kg.

CD-1 male mice [1] = assay: Baker yeast-induced hyperthermia (antipyresis); type: in vivo; conditions: 50 mg/kg bw p.o., baker's yeast-induced fever, FIG. 5
Protocol: The antipyretic effect of the compounds was assessed utilizing baker yeast-induced hyperthermia. All animals (CD-1 male mice weighing between 45-50 g) were fasted overnight (with free access to water) and their baseline temperature was recorded using a Cole-[…] rectal thermometer probe. […] (206% […].); (Groups 5-6) DEA salt-Brewer's yeast soln. (20% w/v) (i.p.) and DEA Salt (50 mg/kg bw) (p.o.). Two hours post-injection, rectal temperatures were recorded once again, to determine total change in body temperature. Percentage Change in body temperature is calculated with the formula, Percentage Change=[(Total change in body temperature)/(Base temperature)*100]. Data is expressed as mean±SEM, n=10.

hepatocytes = assay: Hepatotoxicity (LDH assay, GSH assay); type: cell-based; conditions: FIG. 6
Protocol: LDH assay. Using the Pierce LDH Cytotoxicity assay kit from Thermo Scientific, cells were incubated in presence of various drug compounds, followed by collection of the medium supernatant. Release of LDH was measured in 96 well plate formats. The absorbance was measured at 490 nm and 680 nm and the final result was absorbance observed at 680 nm subtracted from absorbance observed at 490 nm (A490nw-A680nm).
GSH assay. Using the ThiolTracker Violet Glutathione Detection reagent from Molecular Probes (Invitrogen), after hepatocytes were incubated in the presence of various compounds, incubation medium was removed, cells rinsed with D-PBS conditioned medium followed by incubation with pre-warmed ThiolTracker Violet dye (working solution prepared as per manufacturer's instructions) for 30 minutes. Fluorescence was measured at the following wavelengths: excitation (404 nm) and emission (526 nm). The finalized result was expressed as relative fluorescence units (RFU), which indicates the cellular level of reduced glutathione (GSH) in intact cells.
Hepatotoxicity results for the inventive DEA salt compound are shown m FIG. 6.

CD-1 male mice [2] = assay: Acetic acid-induced abdominal writhing assay; type: in vivo
Protocol: Acetic acid-induced abdominal writhing assay. Contraction of the abdominal muscle and stretching of the hind limbs is induced as a response to intraperitoneal (ip) injection of an acetic acid solution, as described Hendershot and Forsaith, 1959. In this model of visceral pain, abdominal contractions (writhing) is induced in mice by an ip injection of 0.4% acetic acid at a dose of 10 mL/Kg, 25 min after drug administration. The number of writhes is counted for 10 min beginning 5 min after acetic acid injection.
All groups have been compared to vehicle and differences analyzed by one-way ANOVA followed by Sidak's multiple comparison post hoc test.

## CCNCC.O=C(CNS(=O)(=O)c1ccccc1C(=O)O)Nc1ccc(O)cc1 [DEA salt, 2-[[2-(4-hydroxyanilino)-2-oxo-ethyl]sulfamoyl]benzoate diethylammonium salt]
CD1 male mice
  reducing pain versus ApAP, tail flick assay: comparable to ApAP in reducing pain
rats
  reducing pain versus ApAP, Von Frey assay: comparable to ApAP in reducing pain
CD-1 male mice [1]
  antipyretic effect versus ApAP: antipyretic effect comparable to ApAP
hepatocytes
  hepatotoxicity versus ApAP: minimal hepatotoxicity; also recorded: decreased toxicity
CD-1 male mice [2]; CD-1 male mice, per os, ip 0.4% acetic acid
  calculated 50% effective dose (ED50) based on the writhing assay: 10.3 mg/kg
CD-1 male mice [2]; FIG. 8, vehicle only nearly 40
  number of writhes induced by injection of acetic acid: under 20
CD-1 male mice [2]; in vivo analgesia model, FIG. 8
  reducing pain versus ApAP, acetic acid-induced abdominal writhing: comparable to ApAP in reducing pain
